Assay results: patent US20130158098A1, “Alkenyl Substituted Cycloaliphatic Compounds as Chemical Inducers of Proximity” (priority 2010, published 2013)

Tests used:
[1] = target: T1, VP16-PYLcs and Gal4 DBD-ABIcs (Arabidopsis thaliana, UniProt Q8VZS8); assay: ABA-induced luciferase activation (ABA-activator cassette + UAS-luciferase reporter); type: cell-based
T1 construct: HA (from the reverse primer); expressed in transfected cells; host or cells: CHO; also HEK 293/293T, NIH3T3, COS7, B35, Jurkat, E14, TC1, MEF
T1 sequence (Q8VZS8 33-209): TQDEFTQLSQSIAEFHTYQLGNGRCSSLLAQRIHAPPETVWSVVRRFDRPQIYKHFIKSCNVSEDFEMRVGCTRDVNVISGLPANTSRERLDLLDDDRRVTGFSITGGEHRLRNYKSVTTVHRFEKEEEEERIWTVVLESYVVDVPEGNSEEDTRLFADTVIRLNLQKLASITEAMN
T1 sequence (P49597 126-423 partner): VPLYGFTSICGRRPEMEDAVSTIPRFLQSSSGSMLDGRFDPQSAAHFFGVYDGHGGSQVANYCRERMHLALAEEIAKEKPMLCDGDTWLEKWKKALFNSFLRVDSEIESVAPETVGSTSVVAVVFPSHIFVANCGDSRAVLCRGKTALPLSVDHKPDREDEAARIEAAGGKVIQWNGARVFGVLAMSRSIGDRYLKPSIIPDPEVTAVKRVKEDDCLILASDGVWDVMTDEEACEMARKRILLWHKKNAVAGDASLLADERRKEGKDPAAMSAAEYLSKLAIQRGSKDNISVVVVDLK
From the text: Activation construct: A fragment of PYL1 (one of PYR/PYL/RCAR members) (aa 33-209, also referred to as “PYLcs”) was linked to a transcriptional activation domain and a fragment of ABI1 (one of PP2C members) (aa 126-423, SEQ ID NO:2, also referred to as “ABIcs”) was linked to a DNA binding domain using recombinant DNA methods. In the constructs illustrated in FIG. 1 and FIG. 2, PYL1 (“PYLcs”) is fused to the VP16 activation domain and ABI1 (“ABIcs”) is fused to the Gal4 DNA binding domain. These two regulatory elements are linked by IRES and driven by the SV40 early promoter. Reporter constructs: Full length Luciferase is driven by Fos gene minimal promoter with 5 copies of Gal4 DNA binding sites immediately upstream of Fos promoter. GFP reporter is driven by IL2 minimal promoter with 5×Gal4 DNA binding sites upstream.
CHO, HEK 293T, NIH 3T3, B35, MEF, and COS7 cells were cultured in Dulbecco's modified Eagle's medium (DMEM) (Gibco) with 10% FBS (Omega Scientific), 1× glutamate (Gibco), and 1× penicillin/streptomycin (Pen/Strep; Gibco). Jurkat cells were cultured in RPMI 1640 (Gibco) with 10% FBS, 1× glutamate, and 1×Pen/Strep. E14 and TC1 were cultured in Knockout DMEM (Gibco) with 7.5% ES FBS (Applied Stem Cell), 7.5% knockout SR (Gibco), 1× Hepes (Gibco), 1× sodium pyruvate (Gibco), 1×MEM NEAA (nonessential amino acids; Gibco), 1×2-mercaptoethanol (Gibco), 1× glutamate, 1×Pen/Strep, and leukemia inhibitory factor (LIF) on gelatin (Millipore)-coated plates. Cells (50,000 to 200,000) were plated in a well of a 24-well plate the day before transfection. An amount of 0.1 to 0.5 μg of DNA of each construct was mixed with 50× (v/w) Opti-MEM (Gibco), and then 3× (v/w) FuGENE HD (Roche) was added and thoroughly mixed. After incubation at room temperature for 20 min, the mixture was added to the cells and cultured for 24 to 48 hours before experiments were performed.
Cells in 24-well plates were lysed with 100 μl of 1× Passive Lysis Buffer (Promega) at room temperature for 10 min on a shaker (˜80 rpm). Cell lysates were then spun down (16,000 g) and 10 μl of supernatant was used for luciferase assay. Luciferase substrate solution [100 μl; 5 mg of D-luciferin (BD Biosciences) and 7 mg of coenzyme A (Sigma) in 33 ml of luciferase reading buffer: 20 mM tricine, 1.07 mM (MgCO3)4Mg(OH)2.5H2O, 2.67 mM MgSO4, 0.1 mM EDTA, 33.3 mM dithiothreitol (DTT), and 0.53 mM ATP in water] was added to the cell lysates, and signal was read with a 3-s delay and 1-s integration with a Turner BioSystem Modulus microplate reader. Obtained data were analyzed by Prism 5 (GraphPad Software).
The inducible gene activation module illustrated in FIG. 1 was introduced into a mammalian cell line (CHO, Chinese Hamster Ovary cells) along with a luciferase reporter to test the inducibility of gene activation by ABA, as shown in FIG. 2.
To assay the ability of ABA to induce effective proximity of chimeric proteins, the ability of ABA to reconstitute protein domains was tested. In this strategy, ABA was used to induce the proximity of the yeast Gal4 DNA binding domain (Gal4 DBD) to the herpes simplex virus VP16 transactivation domain (VP16AD) (FIG. 2B). […] The VP16AD, when tethered to DNA binding domains, strongly activates transcription but cannot act without proximity to a DNA binding domain. To test gene activation by ABA-induced proximity of Gal4 DBD and VP16AD, an ABA-activator cassette was constructed by fusing Gal4 DBD to the domain of ABI1 that interacts with PYL1 (the complementary surface of ABI1, or “ABIcs”) and VP16AD to the domain of PYL1 that interacts with ABI1 (the complementary surface of PYL1, or “PYLcs”) (FIG. 2B).
The ABA-induced domain reconstitution leading to induction of gene expression was compared to a similar system in Chinese hamster ovary (CHO) cells controlled by Rap, which has wild-type FKBP12 and Frb replacing ABIcs and PYLcs, respectively, in the chimeric proteins. […]

[2] = rat; cited from earlier work
[3] = E14 and CHO cells (FIG. 12D, FIG. 19)

CC1=CC(=O)CC(C)(C)C1(O)/C=C/C(C)=C/C(=O)O (stereo not drawn) [ABA, abscisic acid]
gene activation in different cell types ([1]; 100 μM, 24 hours, CHO, NIH3T3, HEK293T, COS7, B35, Jurkat, E14, TC1, MEF): observed in all cell types tested
change in protein activity relative to untreated cells (factor) ([1]; ABA system): > 1000
specificity of luciferase induction (ABA vs Rap protein pairs) ([1]; CHO and NIH 3T3 cells, 24 hours): only induced by matching small-molecule and dimerizing protein pairs
relative activation change compared with Rap ([1]; CHO cells): comparable
reversibility of luciferase transcription upon removal ([1]; CHO cells, 100 μM for 24 hours then ABA-free media): fully reversible
dose response of transactivation ([1]; CHO cells, 24 hours): large linear range
time for gene activation to reverse to background after withdrawal ([1]; CHO cells, induced 24 hours, washed five times with fresh medium): ≤ 24 h
time at which activation of luciferase was first observed after addition [1, 3]: 1.5 h
time to reach maximum luciferase activation [1, 3]: ≤ 24 h
relative activation change compared with Rap ([1]; E14 cells): much higher
luciferase production induced ([1]; murine embryonic stem (ES) cells, NIH 3T3 and HEK 293T cells, 24 hours): more than three orders of magnitude
acute oral median lethal dose (LD50) [2]: > 5000 mg/kg
